# Reference: US7169932B2 (priority 2001, dated 2007)
# Where two headings read alike, the source gives them in different places.
# Key:
# [1] = tested on: HIV-1 NL4–3 or HIV-1 NL4–3(184V/L90M); test: Susceptibility assay, p24 ELISA in infected MT-2 cells; format: cell-based; conditions: Human immunodeficiency virus 1, MT2, 72 h, read-out: EC50 or IC50 (mM)
# Procedure: T-cell lines, CEM-SS, and MT-2, and viruses HIV-1 RF and HIV-1 NL4–3 (pNL4–3) were obtained from the National Institutes of Health (AIDS Research and Reference Reagent Program, Bethesda, Md.).
# Compounds were tested in phenotypic susceptibility assays at Virologic, Inc., (See Petropoulos C. J., Parkin N. T., Limoli K. L., Lie Y. S., Wrin T., Huang W., Tian H., Smith D., Winslow G. A., Capon D J, Whitcomb J M. 2000, “A novel phenotypic drug susceptibility assay for human immunodeficiency virus type 1,” Antimicrob Agents Chemother 44(4):920–928) or using the assay described here. MT-2 cells were infected with either HIV-1 NL4–3 or HIV-1 NL4–3(184V/L90M) and incubated in the presence of serial 0.5 log dilutions of test compounds. Three days later, culture supernatants were collected and virus production, as determined by p24 ELISA, was assayed. Percent inhibition was calculated as p24 concentration in compound-treated samples as compared to infected, compound-free controls. Inhibition of viral replication is determined by measuring reduction in HIV p24 present in the culture supernatant, using a Beckman-Coulter p24 HIV-1 Ag EIA kit and following the supplied protocol. Absorbance is read on a MRX microplate reader (Dynex Technologies). The EC50 was calculated as the concentration of compound that effected a decrease in the p24 production by infected, compound-treated cells to 50% of that produced by infected, compound-free cells.
# [2] = molecular target: T1, HIV-1 protease (Q7S) (Human immunodeficiency virus type 1 group M subtype B, UniProt P04585, Q495S); test: HIV-1 Protease RET Assay; format: biochemical; conditions: RET assay, Q7S enzyme, pH 4.8, 37 C
# T1 construct: made in house
# Procedure, shortened: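 Ki values came from a RET assay on refolded Q7S protease (2 nM active dimer) cleaving RE(EDANS)SQNYPIVQK(DABCYL)R at 5 μM, read at ex 340/em 490 nm. Reactions ran 12 min at 37 C in 0.1M sodium acetate pH 4.8, 1M NaCl, 5 mM DTT, 10% DMSO; curves were fit with the Morrison tight-binding equation.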
# [3] = tested on: HIV-1; test: Cytopathic Effect (CPE) Inhibition Assay (XTT dye reduction); format: cell-based; conditions: Human immunodeficiency virus 1, 144 h
# Procedure, shortened: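 CEM-SS or MT-2 cells infected with HIV-1 RF or NL4–3 (moi 0.025–0.819), 2×10^4 cells/well, incubated six days with half-log compound dilutions. Viability read by XTT formazan at 450 nm; EC50 is the concentration restoring 50% of uninfected-control formazan, CC50 from uninfected treated cells, therapeutic index CC50/EC50.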
# [4] = read-out: Ave CPE EC50 (mM), protection of infected cells, six days, XTT
SMILES,EC50 [1] [nM],Ki ([2]; Ave. Ki (nM)) [nM],"EC50 [3, 4] [nM]",melting point [°C],EC50 ([3]; read-out: Ave CPE EC50 (mM)) [nM],Ki ([2]; read-out: Ave. Ki) [nM]
"Cc1c(O)cccc1C(=O)N[C@@H](Cc1ccccc1)[C@H](O)C(=O)N1CSC(C)(C)[C@H]1C(=O)NCc1c(F)cccc1C(F)(F)F [Example A24, (R)-3-((2S,3S)-2-Hydroxy-3-{[1-(3-hydroxy-2-methyl-phenyl)-methanoyl]-amino}-4-phenyl-butanoyl)-5,5-dimethyl-thiazolidine-4-carboxylic acid fluoro-trifluoromethyl-benzylamide]",831,0.18,104,,,
"CCCN(C)C(=O)[C@H]1N(C(=O)[C@@H](O)[C@H](Cc2ccccc2)NC(=O)c2cccc(O)c2C)CSC1(C)C [Example A46, (R)-3-((2S,3S)-2-Hydroxy-3-{[1-(3-hydroxy-2-methyl-phenyl)-methanoyl]-amino}-4-phenyl-butanoyl)-5,5-dimethyl-thiazolidine-4-carboxylic acid methyl-propyl-amide]",790,0.31,91,108 to 110,,
"Cc1ccccc1CNC(=O)C1N(C(=O)C(O)C(Cc2ccccc2)NC(=O)c2c(C)c(=O)on2C)CSC1(C)C (stereo not shown) [Example B19, 2,4-Dimethyl-5-oxo-2,5-dihydro-isoxazole-3-carboxylic acid {1-benzyl-3-[5,5-dimethyl-4-(2-methyl-benzylcarbamoyl)-thiazolidin-3-yl]-2-hydroxy-3-oxo-propyl}-amide]",1370,< 0.1,124,,,
"Cc1c(O)cccc1C(=O)N[C@@H](Cc1ccccc1)[C@H](O)C(=O)N1CSC(C)(C)[C@H]1C(=O)NCc1cccc(O)c1 [Example A42, (R)-3-((2S,3S)-2-Hydroxy-3-{[1-(3-hydroxy-2-methyl-phenyl)-methanoyl]-amino}-4-phenyl-butanoyl)-5,5-dimethyl-thiazolidine-4-carboxylic acid 3-hydroxy-benzylamide]",307,0.23,126,,,
"Cc1ccccc1CN(C)C(=O)[C@H]1N(C(=O)[C@@H](O)[C@H](Cc2ccccc2)NC(=O)c2cccc(O)c2C)CSC1(C)C [Example A7, 3-[2-Hydroxy-3-(3-hydroxy-2-methyl-benzoylamino)-4-phenyl-butyryl]-5,5-dimethyl-thiiazolidine-4-carboxylic acid methyl-(2-methyl-benzyl)-amide]",832,0.49,104,,,
"C/C=C(\C)CNC(=O)[C@H]1N(C(=O)[C@@H](O)[C@H](Cc2ccccc2)NC(=O)c2cccc(O)c2C)CSC1(C)C [Example A35, (R)-3-((2S,3S)-2-Hydroxy-3-{[1-(3-hydroxy-2-methyl-phenyl)-methanoyl]-amino}-4-phenyl-butanoyl)-5,5-dimethyl-thiazolidine-4-carboxylic acid ((E)-2-methyl-but-2-enyl)-amide]",63,< 0.1,17,,,
"COCCCC(=O)[C@H]1N(C(=O)[C@@H](O)[C@H](Cc2ccccc2)NC(=O)c2cccc(O)c2C)CSC1(C)C [Example D3, N-{1-Benzyl-2-hydroxy-3-[4-(4-methoxy-butanoyl)-5,5-dimethyl-thiazolidin-3-yl]-3-oxo-propyl}-3-hydroxy-2-methyl-benzamide]",1950,0.5,162,,,
"Cc1c(O)cccc1C(=O)N[C@@H](Cc1ccccc1)[C@H](O)C(=O)N1CSC(C)(C)[C@H]1C(=O)NCc1ccccc1O [Example A44, (R)-3-((2S,3S)-2-Hydroxy-3-{[1-(3-hydroxy-2-methyl-phenyl)-methanoyl]-amino}-4-phenyl-butanoyl)-5,5-dimethyl-thiazolidine-4-carboxylic acid 2-hydroxy-benzylamide]",472,0.14,22,,,
"Cc1ccccc1CNC(=O)C1N(C(=O)C(O)C(Cc2ccccc2)NC(=O)c2cccc(C)c2C)CSC1(C)C (stereo not shown) [Example B17, 3-[3-(2,3-Dimethyl-benzoylamino)-2-hydroxy-4-phenyl-butyryl]-5,5-dimethyl-thiazolidine-4-carboxylic acid 2-methyl-benzylamide]",1580,0.42,534,,,
"Cc1ccccc1CNC(=O)[C@H]1N(C(=O)[C@@H](O)[C@H](Cc2ccccc2)NC(=O)c2ccsc2)CSC1(C)C [Example B6, (R)-3-{(2S,3S)-2-Hydroxy-4-phenyl-3-[(1-thiophen-3-yl-methanoyl)-amino]-butanoyl}-5,5-dimethyl-thiazolidine-4-carboxylic acid 2-methyl-benzylamide]",,1.6,,98 to 100,589,
"Cc1c(O)cccc1C(=O)N[C@@H](Cc1ccccc1)[C@H](O)C(=O)N1CSC(C)(C)[C@H]1C(=O)NCc1ccc(N)cc1 [Example A16, (R)-3-((2S,3S)-2-Hydroxy-3-{[1-(3-hydroxy-2-methyl-phenyl)-methanoyl]-amino}-4-phenyl-butanoyl)-5,5-dimethyl-thiazolidine-4-carboxylic acid 4-amino-benzylamide]",,0.63,,107 to 109,134,
"COc1ccccc1CNC(=O)[C@H]1N(C(=O)C(O)C(Cc2ccccc2)NC(=O)c2cccc(O)c2C)CSC1(C)C (stereo partly drawn) [Example A3, (R)-3-(2-Hydroxy-3-{[1-(3-hydroxy-2-methyl-phenyl)-methanoyl]-amino}-4-phenyl-butanoyl)-5,5-dimethyl-thiazolidine-4-carboxylic acid 2-methoxy-benzylamide]",,1.7,,123 to 125,370,
"CC(C)=CCNC(=O)[C@H]1N(C(=O)[C@@H](O)[C@H](Cc2ccccc2)NC(=O)c2cccc(O)c2C)CSC1(C)C [Example A32, (R)-3-((2S,3S)-2-Hydroxy-3-{[1-(3-hydroxy-2-methyl-phenyl)-methanoyl]-amino}-4-phenyl-butanoyl)-5,5-dimethyl-thiazolidine-4-carboxylic acid (3-methyl-but-2-enyl)-amide]",486,< 0.1,45,,,
"C/C=C/CNC(=O)[C@H]1N(C(=O)[C@@H](O)[C@H](Cc2ccccc2)NC(=O)c2cccc(O)c2C)CSC1(C)C [Example A38, (R)-3-((2S,3S)-2-Hydroxy-3-{[1-(3-hydroxy-2-methyl-phenyl)-methanoyl]-amino}-4-phenyl-butanoyl)-5,5-dimethyl-thiazolidine-4-carboxylic acid (E)-but-2-enylamide]",401,0.17,78,,,
"C=CCNC(=O)[C@H]1N(C(=O)[C@@H](O)[C@H](Cc2ccccc2)NC(=O)c2cc(C)cc(O)c2C)CSC1(C)C [Example D4, (R)-3-[(2S, 3S)-2-Hydroxy-3-(3-hydroxy-2,5-dimethyl-benzoylamino)-4-phenyl-butyryl]-5,5-dimethyl-thiazolidine-4-carboxylic acid allylamide]",1950,,16,,,0.7
"Cc1ccccc1CNC(=O)[C@H]1N(C(=O)[C@@H](O)[C@H](Cc2ccccc2)NC(=O)[C@@H]2CCCO2)CSC1(C)C [Example B7, (R)-3-{(2S,3S)-2-Hydroxy-4-phenyl-3-[((S)-1-tetrahydro-furan-2-yl-methanoyl)-amino]-butanoyl}-5,5-dimethyl-thiazolidine-4-carboxylic acid 2-methyl-benzylamide]",,1.9,,82 to 84,680,
"Cc1ccccc1CNC(=O)[C@H]1N(C(=O)[C@@H](O)[C@H](Cc2ccccc2)NC(=O)c2ccccc2C)CSC1(C)C [Example B16, 3-[2-Hydroxy-3-(2-methyl-benzoylamino)-4-phenyl-butyryl]-5,5-dimethyl-thiazolidine-4-carboxylic acid 2-methyl-benzylamide]",1750,< 0.1,298,,,
"Cc1ccccc1CNC(=O)[C@H]1N(C(=O)[C@@H](O)[C@H](Cc2ccccc2)NC(=O)c2cccc(O)c2C)COC1(C)C [Example C6, (S)-3-((2S,3S)-2-Hydroxy-3-{[1-(3-hydroxy-2-methyl-phenyl)-methanoyl]-amino}-4-phenyl-butanoyl)-5,5-dimethyl-oxazolidine-4-carboxylic acid 2-methyl-benzylamide]",1480,< 0.1,164,,,
